One block for each molecule: values may come before it.
What was measured:
PFK1 = PFK1 activity in PMN lysates; type: cell-based, human; conditions: for activation-induced reduction in PFK1 activity: neutrophils treated with PMA, LPS, or cholesterol crystals
Experimental: PFK1 activity assays from neutrophil lysates were modified from Abrantes et al., 2012. Briefly, neutrophils (10^7) were cultured with 0.5 μM NA-11 for 30 min, and then stimulated with 50 nM PMA, 5 μg/mL cholesterol crystals, 10 μg/mL LPS or 25 μM nigericin for 30 min. Cells were lysed in 10 mM PBS, 1% Triton X-100, and 1 x EDTA-free protease inhibitor cocktail on ice for 10 min. The soluble protein lysates were quantified by BCA assay (Pierce) and adjusted to 0.3125 mg/mL with lysis buffer. Lysate (80 μL) was mixed with 100 μL 2x enzyme cocktail solution (100 mM Tris-HCL pH7.4, 10 mM MgCl2, 0.5 mM ATP, 0.3 mM NADH, 1.35 units/mL Aldolase, 10 units/mL Triose phosphate isomerase, 4 units/mL glycerophosphate dehydrogenase, 20 mM ammonium sulfate) equilibrated to reach room temperature for 5 min. 20 μL of Fructose-6-phosphate (40 mM) was added and the reaction monitored for NADH decrease (absorbance at 340 nm) every 30 s for 30 min. Specific activity is in pmoles FBP per min per mg lysate.

[1] = target: T1, PFKM+pocket (R315 to lysine) (Homo sapiens, UniProt P08237, R315K); assay: Recombinant PFKM+pocket activity assay; type: biochemical
T1 construct: made in house; host or cells: Sf9 insect cells (baculovirus)
T1 sequence (P08237 1-780 R315K): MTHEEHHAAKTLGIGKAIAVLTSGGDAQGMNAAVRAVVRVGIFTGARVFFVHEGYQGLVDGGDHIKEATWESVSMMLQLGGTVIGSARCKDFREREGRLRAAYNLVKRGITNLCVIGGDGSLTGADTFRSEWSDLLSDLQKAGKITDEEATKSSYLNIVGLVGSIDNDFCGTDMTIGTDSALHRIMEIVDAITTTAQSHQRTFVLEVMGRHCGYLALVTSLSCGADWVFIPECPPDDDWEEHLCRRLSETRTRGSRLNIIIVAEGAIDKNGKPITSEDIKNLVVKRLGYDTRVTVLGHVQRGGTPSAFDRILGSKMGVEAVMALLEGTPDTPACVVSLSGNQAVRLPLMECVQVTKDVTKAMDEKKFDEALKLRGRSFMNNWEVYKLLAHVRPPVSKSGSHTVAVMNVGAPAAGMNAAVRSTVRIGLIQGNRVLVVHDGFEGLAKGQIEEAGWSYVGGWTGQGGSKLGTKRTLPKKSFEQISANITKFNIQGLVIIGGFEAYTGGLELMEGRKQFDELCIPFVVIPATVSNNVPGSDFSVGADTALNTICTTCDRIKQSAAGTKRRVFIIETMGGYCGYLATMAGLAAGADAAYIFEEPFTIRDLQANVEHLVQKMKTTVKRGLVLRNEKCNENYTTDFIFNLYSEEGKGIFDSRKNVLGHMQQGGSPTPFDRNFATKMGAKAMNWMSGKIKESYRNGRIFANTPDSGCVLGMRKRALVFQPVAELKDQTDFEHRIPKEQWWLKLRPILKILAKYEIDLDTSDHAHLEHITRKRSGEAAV
Excerpt: Recombinant N-terminal His-tagged human PFKL (NP_002617), PFKM (NP_000280), and PFKP (NM_002627.4) were generated as described ([Webb et al., 2015], [2017]). Point mutants of PFK1 were generated using the QuikChange Lightning kit (Aligent).
His-tagged PFK1 was expressed and purified as described with slight modifications ([Webb et al., 2015], [2017]). Briefly, baculovirus was generated using the Bac-to-Bac Expression system (Invitrogen). PFK1 was expressed in 2-5 × 10^6 sf9 cells at a multiplicity of infection of two for 48 h. Cells were lysed in 20 mM HEPES, pH 7.5, 80 mM potassium phosphate, 1 mM 2-mercapentoethanol, 10% glycerol, 10 mM imidazole, and EDTA-free Protease Inhibitor Cocktail (Abcam) with a Dounce homogenizer. The soluble lysate was incubated with HisPur cobalt resin (ThermoFisher Scientific). The resin was washed with 5 bead volumes lysis buffer, 10 bead volumes lysis buffer containing 2 M NaCl, and 5 further bead volumes lysis buffer. PFK1 was eluted in lysis buffer containing 100 mM imidazole. Fractions containing protein were pooled, passed over a desalting column equilibrated in freezing buffer [20 mM HEPES pH 7.5, 1 mM DTT, 500 μM ammonium sulfate, 5% glycerol, 1 mM ATP, and 100 μM EDTA] and concentrated using an Amicon Ultracel-30K Centrifugal Filter Unit (MilliporeSigma). Protein was quantified using a Bradford Protein Assay kit (ThermoFisher Scientific), and aliquotes frozen in liquid nitrogen for storage at −80°C.
PFK1 activity was determined using the rate of FBP production via an auxiliary enzyme assay adapted to a 96-well format ([Brüser et al., 2012]; [Webb et al., 2015]). The auxiliary enzymes aldolase, triosephosphate isomerase, and glycerol phosphate dehydrogenase were purchased from MilliporeSigma as ammonium sulfate slurries and desalted using an Amicon Ultracel-10K Centrifugal Filter Unit. For assays containing FBP, the rate of ADP production was determined using the auxiliary enzymes pyruvate kinase (PK) and lactate dehydrogenase (LDH) (MilliporeSigma) in a buffer containing 250 μM phosphoenolpyruvic acid, […] NADH, 50 mM HEPES pH 7.5, 100 mM KCl, 1 mM DTT, and effector concentrations as described in the text. The temperature was equilibrated to 25°C for 5 min before initiating the reaction 10 mM MgCl2. Absorbance at 340 nm was measured using a Varioskan LUX Multimode microplate reader (ThermoFisher). Kinetic parameters were generated by nonlinear regression analysis using Prism (GraphPad Software) and are the mean of a minimum of three measurements from two independent preparations of protein. One unit of activity was defined as the amount of enzyme that catalyzed the formation of 1 μmol of fructose 1,6-bisphosphate per min at 25°C. […]

[2] = PFKM+pocket, pH 7.0, 250 μM ATP

Structure (SMILES): COc1ccccc1-c1cc2n(n1)Cc1ccc(NC(C)=O)cc1OC2 [LDC7559, reference compound]
activation-induced reduction in PFK1 activity (PFK1): prevented

hF6P (Hill coefficient) [1, 2]: 3.64 ± 0.69
Structure (SMILES): O=C(CO)[C@@H](O)[C@H](O)[C@H](O)COP(=O)(O)O [F6P, fructose 6-phosphate]
Vmax,F6P [1, 2]: 17.29 ± 0.93 micromoles FBP per minute per milligram PFK1

EC50 ([1]; pH 7.0, 4.0 mM ATP, 1.0 mM F6P, mean ± SEM, read-out: EC50, activation of PFKM+pocket): 10.9 ± 1.28 nM
Structure (SMILES): CC(=O)Nc1ccc2c(c1)OCc1cc(-c3ccccc3)nn1C2 [NA-5]

Structure (SMILES): CC(=O)Nc1ccc2c(c1)OCc1cc(-c3ccccc3C#CCCCO)nn1C2 [NA-11]
activation-induced reduction in PFK1 activity (PFK1): prevented
effect on PFK1 activity in resting neutrophils (PFK1; resting neutrophils): minimal

Reference: article PMC8802628, “Selective activation of PFKL suppresses the phagocytic oxidative burst” (Cell, 2021)
